Literature values in PubChem BioAssay AID1259409 (Chemical Carcinogenesis Research Information System (CCRIS), 2018).

Tested on: rodent chemically induced tumor inhibition, incidence and multiplicity
Experiment: CCRIS tumor inhibitor studies
Conditions: Dose [Inhibitor]: 0
Source text: The CCRIS database contains chemical records with carcinogenicity, mutagenicity, tumor promotion, and tumor inhibition test results. It was developed by the National Cancer Institute (NCI). Data are derived from studies cited in primary journals, current awareness tools, NCI reports, and other sources. Test results have been reviewed by experts in carcinogenesis and mutagenesis.
CCRIS provides historical information from the years 1985 - 2011. It is no longer updated.
This is an archive assay for CCRIS tumor inhibitor studies.

COc1cc(CNC(=O)CCCC/C=C/C(C)C)ccc1O
tumour outcome (control, treated, inhibition, significance) (Carcinogen: 7,12-DIMETHYLBENZ[A]ANTHRACENE, 57-97-6, 0.01% IN DIET BEGINNING 3 WK POST CARCINOGEN DOSE AND CONTINUING FOR 6 WK (STUDY DURATION: 9 WK), Route [Inhibitor]: ORAL, Species: MOUSE, Strain/Sex: SWISS/FEMALE, Target Tissue: Type of Lesion: LUNG: ADENOMA, Dose [Carcinogen]: 40 UG ONCE ADMINISTERED TO NEWBORN MICE, Promoter: NONE USED): 17/17 (100%), 20/22 (91%), 9%, not calculated
tumour outcome (control, treated, inhibition, significance) (Carcinogen: 7,12-DIMETHYLBENZ[A]ANTHRACENE, 57-97-6, 0.01% IN DIET BEGINNING 3 WK POST CARCINOGEN DOSE AND CONTINUING FOR 6 WK (STUDY DURATION: 9 WK), Route [Inhibitor]: ORAL, Species: MOUSE, Strain/Sex: SWISS/MALE, Target Tissue: Type of Lesion: LUNG: ADENOMA, Dose [Carcinogen]: 40 UG ONCE ADMINISTERED TO NEWBORN MICE, Promoter: NONE USED): 10/10 (100%), 23/24 (96%), 4%, not calculated
tumour outcome (control, treated, inhibition, significance) (Carcinogen: AZOXYMETHANE (25843-45-2), 500 PPM IN DIET FOR 4 WK, BEGINNING 1 WK BEFORE THE FIRST CARCINOGEN DOSE (STUDY DURATION: 38 WK), Route [Inhibitor]: ORAL, Species: RAT, Strain/Sex: F344/MALE, Target Tissue: Type of Lesion: LARGE INTESTINE: ADENOCARCINOMA, Dose [Carcinogen]: 15 MG/KG BW 1 INJECTION/WK FOR 3 WK, Promoter: NONE USED): 9/15 (60%), 4/17 (24%), 60%, p = 0.0407
tumour outcome (control, treated, inhibition, significance) (Carcinogen: AZOXYMETHANE (25843-45-2), 500 PPM IN DIET FOR 4 WK, BEGINNING 1 WK BEFORE THE FIRST CARCINOGEN DOSE (STUDY DURATION: 38 WK), Route [Inhibitor]: ORAL, Species: RAT, Strain/Sex: F344/MALE, Target Tissue: Type of Lesion: LARGE INTESTINE: ADENOMA, Dose [Carcinogen]: 15 MG/KG BW 1 INJECTIONS/WK FOR 3 WK, Promoter: NONE USED): 4/15 (27%), 1/17 (6%), 78%, not significant
tumour outcome (control, treated, inhibition, significance) (Carcinogen: AZOXYMETHANE (25843-45-2), 500 PPM IN DIET FOR 4 WK, BEGINNING 1 WK BEFORE THE FIRST CARCINOGEN DOSE (STUDY DURATION: 38 WK), Route [Inhibitor]: ORAL, Species: RAT, Strain/Sex: F344/MALE, Target Tissue: Type of Lesion: SMALL INTESTINE: ADENOCARCINOMA, Dose [Carcinogen]: 15 MG/KG BW 1 INJECTION/WK FOR 3 WK, Promoter: NONE USED): 4/15 (27%), 3/17 (18%), 33%, not significant
tumour outcome (control, treated, inhibition, significance) (Carcinogen: AZOXYMETHANE (25843-45-2), 500 PPM IN DIET FOR 4 WK, BEGINNING 1 WK BEFORE THE FIRST CARCINOGEN DOSE (STUDY DURATION: 38 WK), Route [Inhibitor]: ORAL, Species: RAT, Strain/Sex: F344/MALE, Target Tissue: Type of Lesion: SMALL INTESTINE: ADENOMA, Dose [Carcinogen]: 15 MG/KG BW 1 INJECTION/WK FOR 3 WK, Promoter: NONE USED): 1/15 (7%), 0/17 (0%), 100%, not significant
tumour outcome (control, treated, inhibition, significance) (Carcinogen: AZOXYMETHANE (25843-45-2), 500 PPM IN DIET FOR 34 WK, BEGINNING 1 WK AFTER THE LAST CARCINOGEN DOSE (STUDY DURATION: 38 WK), Route [Inhibitor]: ORAL, Species: RAT, Strain/Sex: F344/MALE, Target Tissue: Type of Lesion: LARGE INTESTINE: ADENOCARCINOMA, Dose [Carcinogen]: 15 MG/KG BW 1 INJECTION/WK FOR 3 WK, Promoter: NONE USED): 9/15 (60%), 6/14 (43%), 28%, not significant
tumour outcome (control, treated, inhibition, significance) (Carcinogen: AZOXYMETHANE (25843-45-2), 500 PPM IN DIET FOR 34 WK, BEGINNING 1 WK AFTER THE LAST CARCINOGEN DOSE (STUDY DURATION: 38 WK), Route [Inhibitor]: ORAL, Species: RAT, Strain/Sex: F344/MALE, Target Tissue: Type of Lesion: LARGE INTESTINE: ADENOMA, Dose [Carcinogen]: 15 MG/KG BW 1 INJECTION/WK FOR 3 WK, Promoter: NONE USED): 4/15 (27%), 2/14 (14%), 48%, not significant
tumour outcome (control, treated, inhibition, significance) (Carcinogen: AZOXYMETHANE (25843-45-2), 500 PPM IN DIET FOR 34 WK, BEGINNING 1 WK AFTER THE LAST CARCINOGEN DOSE (STUDY DURATION: 38 WK), Route [Inhibitor]: ORAL, Species: RAT, Strain/Sex: F344/MALE, Target Tissue: Type of Lesion: SMALL INTESTINE: ADENOCARCINOMA, Dose [Carcinogen]: 15 MG/KG BW 1 INJECTION/WK FOR 3 WK, Promoter: NONE USED): 4/15 (27%), 3/14 (21%), 22%, not significant
tumour outcome (control, treated, inhibition, significance) (Carcinogen: AZOXYMETHANE (25843-45-2), 500 PPM IN DIET FOR 34 WK, BEGINNING 1 WK AFTER THE LAST CARCINOGEN DOSE (STUDY DURATION: 38 WK), Route [Inhibitor]: ORAL, Species: RAT, Strain/Sex: F344/MALE, Target Tissue: Type of Lesion: SMALL INTESTINE: ADENOMA, Dose [Carcinogen]: 15 MG/KG BW 1 INJECTION/WK FOR 3 WK, Promoter: NONE USED): 1/15 (7%), 0/14 (0%), 100%, not significant
tumour outcome (control, treated, inhibition, significance) (Carcinogen: BENZO[A]PYRENE, 50-32-8, 0.01% IN DIET BEGINNING 3 WK POST CARCINOGEN DOSE AND CONTINUING FOR 6 WK (STUDY DURATION: 9 WK), Route [Inhibitor]: ORAL, Species: MOUSE, Strain/Sex: SWISS/FEMALE, Target Tissue: Type of Lesion: LUNG: ADENOMA, Dose [Carcinogen]: 1 MG ONCE ADMINISTERED TO NEWBORN MICE, Promoter: NONE USED): 8/34 (24%), 4/30 (13%), 46%, p<0.05
tumour outcome (control, treated, inhibition, significance) (Carcinogen: BENZO[A]PYRENE, 50-32-8, 0.01% IN DIET BEGINNING 3 WK POST CARCINOGEN DOSE AND CONTINUING FOR 6 WK (STUDY DURATION: 9 WK), Route [Inhibitor]: ORAL, Species: MOUSE, Strain/Sex: SWISS/MALE, Target Tissue: Type of Lesion: LUNG: ADENOMA, Dose [Carcinogen]: 1 MG ONCE ADMINISTERED TO NEWBORN MICE, Promoter: NONE USED): 7/35 (20%), 3/34 (9%), 55%, p<0.01
tumour outcome (control, treated, inhibition, significance) (Carcinogen: BENZO[A]PYRENE, 50-32-8, 1 UMOL IN 0.2 ML ACETONE APPLIED 24 AND 1 HR PRIOR TO CARCINOGEN DOSE (STUDY DURATION: 22 WK), Route [Inhibitor]: DERMAL, Species: MOUSE, Strain/Sex: CD-1/FEMALE, Target Tissue: Type of Lesion: SKIN: TUMOR, Dose [Carcinogen]: 0.3 UMOL IN 0.2 ML ACETONE ONCE, Promoter: 12-O-TETRADECANOYLPHORBOL 13-ACETATE, 16561-29-8): 84%, 68%, 19%, not significant
tumour outcome (control, treated, inhibition, significance) (Carcinogen: N-METHYLNITROSOUREA, 684-93-5, DIETHYLNITROSAMINE, 55-18-5, N,N-DIBUTYLNITROS- AMINE, 924-16-3, Carcinogen: N-METHYLNITROSOUREA, 684-93-5, DIETHYLNITROSAMINE, 55-18-5, N,N-DIBUTYLNITROS- AMINE, 924-16-3, 0.01% IN DIET FOR 16 WK BEGINNING POST LAST CARCINOGEN DOSE (STUDY DURATION: 20 WK), Route [Inhibitor]: ORAL, Species: RAT, Strain/Sex: F344/MALE, Target Tissue: Type of Lesion: LUNG: ADENOMA, Dose [Carcinogen]: 100 MG/KG DIETHYLNITROSAMINE INTRAPERITONEAL ON D 1 THEN 200 MG/KG N-METHYLNITROSOUREA ON D 2, 5, 8, 11, AND 0.05% N,N-D): 9/16 (56%), 2/15 (13%), 77%, p<0.02
tumour outcome (control, treated, inhibition, significance) (Carcinogen: VINYL CARBAMATE, 15805-73-9, 2.5 UMOL IN 0.2 ML ACETONE ONCE 10 MIN PRIOR TO CARCINOGEN DOSE (STUDY DURATION: 22 WK), Route [Inhibitor]: DERMAL, Species: MOUSE, Strain/Sex: ICR/FEMALE, Target Tissue: Type of Lesion: SKIN: PAPILLOMA, Dose [Carcinogen]: 5.8 UMOL IN 0.2 ML ACETONE ONCE, Promoter: 12-O-TETRADECANOYLPHORBOL 13-ACETATE, 16561-29-8): 70%, 53%, 24%, not significant
